Results on one compound are retold here after patent US6866861B1, “Method and composition for enhancing milk component concentrations” (Land O'Lakes, Inc., priority 1999, dated 2005).

For this assay, the system named is cows. As to the kind of experiment: Abomasal infusion of xylitol in cows, milk component concentrations (Example 1). The assay is classed as in vivo, cow. As for the experimental part: To determine the weight percent total solids, wet basis, in a sample, the actual weight of total solids is determined by analyzing the sample in accordance with Method #925.23 (33.2.09) of Official Methods of Analysis, Association of Official Analytical Chemists (AOAC) (16th Ed., 1995). The weight percent total solids, wet basis, is then calculated by dividing the actual weight of total solids by the actual weight of the sample. The weight percent of true protein, wet basis, for a particular sample is calculated after first determining the wet basis weight percent of total Kjeldahl nitrogen and the wet basis weight percent of non-protein nitrogen in the sample. The wet basis weight percent of total Kjeldahl nitrogen in the sample is determined using the method referenced above. The wet basis weight percent of non-protein nitrogen (NPN) in the sample is determined in accordance with Method #991.21 (33.2.12) of Official Methods of Analysis, Association of Official Analytical Chemists (AOAC) (16th Ed., 1995). The weight percent of true protein, wet basis, in the sample is then determined by subtracting the wet basis weight percent of non-protein nitrogen in the sample from the wet basis weight percent of total Kjeldahl nitrogen in the sample. To determine the weight percent lactose, wet basis, in a liquid sample, the weight of the liquid sample is first determined. The actual weight of lactose in the liquid sample may then be determined using analysis kit number 176-303, that is available from Boehringer-Mannheim of Indianapolis, Ind. in accordance with the procedural instructions included with analysis kit number 176-303. The weight percent lactose, wet basis, in the liquid sample is then calculated by dividing the actual weight of lactose in the liquid sample by the actual weight of the liquid sample. To determine the weight percent fat, wet basis, in a sample, the actual weight of fat in the sample is determined in accordance with Method #974.09 (33.7.18) of Official Methods of Analysis, Association of Official Analytical Chemists (AOAC) (16th Ed., 1995). The weight percent fat, wet basis, is then calculated by dividing the actual weight of fat in the sample by the actual weight of the sample. In this example, xylitol was abomasally infused into three different cows at a rate of 100 grams per cow per day during a 14 day test period. The rations provided to the cows during the period extending from day 0, prior to abomasal infusion of xylitol, through day 14 of the test period were the same. The only difference in feeding of the cows between day 0 and days 1-14 of the test period were that during days 1-14 the cows were abomasally infused with the dosage of 100 grams of xylitol per cow per day. The xylitol rations were mixed with water in the ratio of 150 grams of water per 100 grams of xylitol to facilitate infusion. Milk from the three cows was collected and analyzed prior to infusion (on day 0) and also was collected and analyzed on the third, seventh and fourteenth day of the test period. The results presented in Table 1 below for each milk component are averages for the milk collected from the three different cows on day 0 and a mean of the day 3, 7, and 14 concentration values, averaged over all of the test cows, for each particular milk component.

Where [1] appears, read: milk, mean of days 3, 7, 14 minus day 0, 100 g/cow/day abomasal.
Where [2] appears, read: milk, mean of days 3, 7 and 14, 100 g/cow/day abomasal infusion, average of 3 cows.

`OC[C@@H](O)[C@H](O)[C@@H](O)CO` [xylitol]: the “weight percent of fat, true protein, lactose, and total solids in the milk (conclusion in words)” value (abomasal infusion, 14 day test period) is on record as “net increase”. Under setting [1], the “Fat, Difference (mean − day 0)” value was “+0.31 Wt %”; the “Lactose, Difference (mean − day 0)” value was “+0.01 Wt. %”; the “Total Solids, Difference (mean − day 0)” value is “+0.39 Wt. %”; the “True Protein, Difference (mean − day 0)” value is “+0.10 Wt. %”. Besides, under setting [2], the Fat is given as 3.63 Wt %, the Lactose is 4.66 Wt. %, the “Total Solids” value is given as 11.82 Wt. % and the “True Protein” value came out at 2.86 Wt. %.
